Data: US7615628B2, “Imidazopyridine derivatives” (Riken, priority 2005, dated 2009)

Tests used:
[1] = test system: human fetal lung fibroblast (normal diploid fibroblast) WI-38 cells; test: MTT assay, cell growth inhibitory activity on normal cells; type: cell-based; conditions: 72 hours incubation at 37° C., WI-38 normal cells, value ± standard deviation
Procedure: MTT assay was performed to examine two test compounds, i.e., 7-(2-thienyl)-3-(2-deoxy-1-β-D-ribofuranosyl)-3H-imidazo[4,5-b]pyridine (herein referred to as Compound IA) and 5-amino-7-(2-thienyl)-3-(2-deoxy-1-β-D-ribofuranosyl)-3H-imidazo[4,5-b]pyridine (herein referred to as Compound IB) for their cell growth inhibitory effect on cultured human fibrosarcoma HT-1080 cells and human fetal lung fibroblast (normal diploid fibroblast) WI-38 cells. These cells (1×10^4 cells/ml) were seeded in 96-well microplates (IWAKI) at 90 μl/well. After culturing at 37° C. for 3 to 4 hours, test compound solutions (10 μl each), which had been dissolved in PBS-5% DMSO and adjusted to various concentrations, were added and incubated at 37° C. for 72 hours. […] After incubation was continued at 37° C. for 16 hours, the absorbance at 570 nm was measured using a microplate reader to calculate % inhibition according to the following equation. % Inhibition=100×[1−(Abssample−Absbackground)/(Absnegative control−Absbackground)] […]
(§1) Abssample: Absorbance in the presence of test compound
(§2) Absbackground: Absorbance in the absence of cells and test compound
Absnegative control: Absorbance in the absence of test compound […]

[2] = test system: cultured human fibrosarcoma HT-1080 cells; test: MTT assay, cell growth inhibitory activity on cancer cells; type: cell-based; conditions: for higher growth inhibitory activity on cancer cells than on normal cells: HT-1080 cancer cells versus WI-38 normal cells, from IC50 values; for IC50: Homo sapiens, MTT assay, 72 hours incubation at 37° C., HT-1080 cells, value ± standard deviation
Procedure: MTT assay was performed to examine two test compounds, i.e., 7-(2-thienyl)-3-(2-deoxy-1-β-D-ribofuranosyl)-3H-imidazo[4,5-b]pyridine (herein referred to as Compound IA) and 5-amino-7-(2-thienyl)-3-(2-deoxy-1-β-D-ribofuranosyl)-3H-imidazo[4,5-b]pyridine (herein referred to as Compound IB) for their cell growth inhibitory effect on cultured human fibrosarcoma HT-1080 cells and human fetal lung fibroblast (normal diploid fibroblast) WI-38 cells. These cells (1×10^4 cells/ml) were seeded in 96-well microplates (IWAKI) at 90 μl/well. After culturing at 37° C. for 3 to 4 hours, test compound solutions (10 μl each), which had been dissolved in PBS-5% DMSO and adjusted to various concentrations, were added and incubated at 37° C. for 72 hours. To the wells containing these solutions, a PBS solution of MTT (5 mg/ml) was added in 25 μl volumes and incubated at 37° C. for an additional 2 hours, followed by addition of a 50% DMF-20% SDS solution in 100 μl to each well. After incubation was continued at 37° C. for 16 hours, the absorbance at 570 nm was measured using a microplate reader to calculate % inhibition according to the following equation. % Inhibition=100×[1−(Abssample−Absbackground)/(Absnegative control−Absbackground)] [Expression 2]
as §1, §2
Absnegative control: Absorbance in the absence of test compound
The concentration (IC50 μM) required for each test compound to cause 50% inhibition of cell growth was calculated from a concentration-inhibition curve. The IC50 values are shown in Table 1 below, along with their standard deviation.

SMILES | IC50 [1] [µM] | higher growth inhibitory activity on cancer cells than on normal cells [2] | IC50 [2] [µM]
OC[C@H]1O[C@@H](n2cnc3c(-c4cccs4)ccnc32)C[C@H]1O [Compound IA, 7-(2-thienyl)-3-(2-deoxy-1-β-D-ribofuranosyl)-3H-imidazo[4,5-b]pyridine] | 290 ± 130 | about 5 fold | 62
Nc1cc(-c2cccs2)c2ncn([C@H]3C[C@@H](O)[C@@H](CO)O3)c2n1 [Compound IB, 5-amino-7-(2-thienyl)-3-(2-deoxy-1-β-D-ribofuranosyl)-3H-imidazo[4,5-b]pyridine] | 330 ± 40 | about 10 fold | 34
